Test results taken from ChEMBL document CHEMBL5260825, “Chemical Constituents of Bryophytes: Structures and Biological Activity” (J Nat Prod, 2018).
In brackets after ≈: the same amount, converted by molar mass. Blank lines part the entries; values can stand above or below the compound they belong to.

Assays:
[1] = Antiplatelet activity against arachidonate-induced rabbit platelet assessed as inhibition of platelet aggregation at 100 ug/ml relative to control; assay type: functional; conditions: Oryctolagus cuniculus
[2] = Antiplatelet activity against arachidonate-induced rabbit platelet assessed as inhibition of platelet aggregation at 50 ug/ml relative to control; assay type: functional; conditions: Oryctolagus cuniculus
[3] = Antiplatelet activity against collagen-induced rabbit platelet assessed as inhibition of platelet aggregation at 100 ug/ml relative to control; assay type: functional; conditions: Oryctolagus cuniculus
[4] = tested on: Trichostrongylus colubriformis; test: Anthelmintic activity against third stage larvae of Trichostrongylus colubriformis by microscope based analysis; assay type: functional, organism-based
[5] = tested on: Trichostrongylus colubriformis; test: Anthelmintic activity against third stage larvae of Trichostrongylus colubriformis at 0.6 mg/ml by microscope based analysis relative to control; assay type: functional
HepG2 = test: Antiproliferative activity against human HepG2 cells assessed as cell growth inhibition; assay type: functional, cell-based
[6] = tested on: Trichostrongylus colubriformis; test: Anthelmintic activity against third stage larvae of Trichostrongylus colubriformis at 0.7 mg/ml by microscope based analysis relative to control; assay type: functional
Rattus norvegicus = species: Rattus norvegicus; test: Inhibition of iron-induced lipid peroxidation in rat liver microsomes in presence of NADPH; assay type: functional, Microsome
Candida albicans = test: Antifungal activity against Candida albican assessed as reduction in fluconazole MIC by microdilution method; assay type: functional
Cyclooxygenase = Cyclooxygenase (Homo sapiens, UniProt P35354+P23219); test: Inhibition of COX (unknown origin); assay type: protein assay
Prothrombin = Prothrombin (Homo sapiens, UniProt P00734); test: Inhibition of thrombin (unknown origin)

Compound: C=C1CC[C@H]2[C@@H]([C@H]3C(COC(C)=O)=CO[C@H](OC(C)=O)[C@@H]13)C2(C)C
- inhibition at 100 µg/mL [1]: 95%
- inhibition at 50 µg/mL [2]: 45%
- inhibition at 100 µg/mL [3]: 100%

Compound: COc1cccc(CCc2ccc(O)cc2)c1
- IC50 [4]: 130 µg/mL (≈ 569 µM)
- inhibition at 600 µg/mL [5]: 85%

Compound: CC1(C)[C@H]2C[C@H](OC(=O)/C=C/c3ccc(O)cc3)[C@]1(C)C[C@H]2O
- IC50 (HepG2): 4.5 µg/mL (≈ 14.2 µM)

Compound: COc1ccc(CCc2cccc(OC)c2)cc1
- inhibition at 700 µg/mL [6]: 85%

Second part, the compound after the results:

- IC50 (Rattus norvegicus): 0.32 µM
Compound: Oc1ccc2cc1Oc1ccc(cc1)CCc1cc(O)c(O)c(c1)Oc1cccc(c1)CC2

- MIC (Candida albicans): 8 µg/mL
- IC50 (Cyclooxygenase): 53.5 µM
Compound: Oc1ccc2c(c1)CCc1ccc(cc1)Oc1cc(ccc1O)CCc1ccc-2c(O)c1 [RICCARDI C]

- IC50 (Prothrombin): 18 µM
Compound: Oc1cccc(CCc2ccc(Oc3cc(CCc4cccc(O)c4)ccc3O)cc2)c1
